Ten molecules from PubChem BioAssay (NCI) can be followed below.

Structures are written as SMILES.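 48-hour exposure; five concentrations; linearly interpolated endpoints. At the GI50, growth is halved. At the TGI there is no net growth.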 Bounds are passed on as bounds.

Assay in all cases: NCI anticancer screen, dose series, 48 h
Assay [1] deals with A498 renal.
Assay [2] concerns BT-549 breast.
In assay [3] the test system is CCRF-CEM leukemia.
Assay [4] concerns DU-145 prostate.
For assay [5], the system named is MCF7 breast.
Assay [6] relates to MOLT-4 leukemia.
In assay [7] the test system is RPMI-8226 leukemia.
Assay [8] has as its system RXF 393 renal.
Assay [9] relates to SNB-19 CNS.
Assay [10] concerns UACC-62 melanoma.

As for `C=C1C(=O)O[C@H]2[C@H]1CC/C(COC(=O)N[C@H]1C[C@H](O[C@H]3C[C@](O)(C(=O)CO)Cc4c(O)c5c(c(O)c43)C(=O)c3c(OC)cccc3C5=O)O[C@@H](C)[C@H]1O)=C\CC[C@@]1(C)O[C@@H]21`, the GI50 in assay [1] is 6.85 µM; in [2] it was 2.4 µM; in [3], 0.672 µM; in assay [4], 12.1 µM; in [5] it was 1.86 µM; in [6], 1.03 µM. The GI50 was 1.33 µM in assay [7], 1.22 µM in assay [8], 13.2 µM in assay [9] and 1.69 µM in [10]. For the same molecule, the TGI is 29.4 µM in [1]; 9.24 µM in assay [2]; 2.28 µM in assay [3]; more than 50 µM in assay [4]; 9.86 µM in assay [5]; 2.83 µM in assay [6]. The TGI was 3.97 µM in assay [7], 3.85 µM in assay [8], more than 50 µM in assay [9] and 7.02 µM in assay [10].

As to `COc1ccc(C(=O)c2sc3nc(-c4ccccc4OC)ccc3c2N)cc1OC`, the GI50 is 3.38 µM in assay [1]; 3.14 µM in assay [2]; 4.07 µM in assay [3]; 27.9 µM in assay [4]; 4.75 µM in assay [5]; 2.7 µM in assay [7]. In addition, the GI50 in [8] is 3.42 µM; in assay [9], 22.8 µM; in assay [10], 4.89 µM. In addition, the TGI in [1] was more than 100 µM; in assay [2], 17 µM; in [3], more than 100 µM; in assay [4], more than 100 µM; in assay [5], more than 100 µM; in [7], more than 100 µM. Besides, the figures for the TGI in assay [8], in assay [9] and in [10] were 70 µM, more than 100 µM and more than 100 µM, respectively.

Regarding `CC(=O)NC1(NC(C)=O)C2CC(C1Cc1ccccc1)C(C)(C)C2C` (stereo not given), the TGI in [1], in assay [2], in assay [3], in assay [4], in assay [5] and in assay [6] was more than 100 µM each time. The TGI in assay [8], in assay [9] and in assay [10] was more than 100 µM in each case.

Regarding `CC(NC(=O)Cc1ccc(C(F)(F)P(=O)(OCc2ccc([N+](=O)[O-])o2)N(C)CCCCCl)cc1)c1ccc(OCC2CCCCC2)c(C(N)=O)c1` (stereo not given), the GI50 in [1] was 1.17 µM; in assay [2], 5.27 µM; in [4], 6.2 µM; in assay [5] it was 6.53 µM; in assay [6], 2.19 µM; in assay [7], 1.14 µM. Besides, the GI50 in assay [8] was 4.36 µM; in [9] it was 8.97 µM; in assay [10], 4.97 µM. The TGI in [1] is 24 µM; in assay [2] it was 13.5 µM; in assay [4], 16.7 µM; in [5], 41.4 µM; in assay [6] it was 7.06 µM; in assay [7], 3.86 µM. The TGI in [8] is 9.97 µM; in assay [9] it was 29.7 µM; in [10], 10.2 µM.

On to `O=[N+]([O-])c1cc([As](Br)c2ccc(O)c([N+](=O)[O-])c2)ccc1O`, for which the TGI in assay [1] was 3.74 µM; in assay [2], 3.84 µM; in [3], 0.436 µM; in assay [4] it was 4.59 µM; in assay [5], more than 20.8 µM; in [7], 1.28 µM. For the same molecule, the results for the TGI in assay [8], in assay [9] and in [10] were 3.22 µM, 3.72 µM and 3 µM, respectively.

As for `C=C1C(=O)O[C@H]2[C@H]1CC/C(Cn1cc(-c3ccc(N)cc3)nn1)=C\CC[C@@]1(C)O[C@@H]21`, the GI50 in assay [1] was 10.4 µM; in assay [2], 3.05 µM; in assay [3], 2 µM; in [4] it was 3.65 µM; in assay [5], 2.41 µM; in assay [6], 2.87 µM. Further, the results for the GI50 in assay [7], in assay [8] and in assay [9] were 2.75 µM, 1.41 µM and 12.7 µM, respectively. Moreover, the TGI came out at 26.1 µM in [1]; 11.7 µM in [2]; 20.3 µM in assay [3]; 14.1 µM in [4]; 9.13 µM in [5]; 28.6 µM in assay [6]. Further, the TGI turned out to be 10.4 µM in assay [7], 3.02 µM in [8] and 41.1 µM in assay [9].

Turning to `CCCc1nc(Cl)nc(Cl)c1Cl`, the TGI in [1] turned out to be 7.53 µM; in [2], 0.0764 µM; in [3], 0.0731 µM; in assay [4] it was 9.93 µM; in assay [5], 1.52 µM; in assay [6] it was 0.551 µM. The TGI in assay [8] worked out at 0.798 µM; in assay [9], 2.57 µM; in assay [10], 2.07 µM.

For the molecule `CO[C@H]1/C=C/O[C@@]2(C)Oc3c(C)c(O)c4c(O)c(c(/C=N/N5CCN(C)CC5)c(O)c4c3C2=O)NC(=O)/C(C)=C\C=C\[C@H](C)[C@H](O)[C@@H](C)[C@@H](O)[C@@H](C)[C@H](OC(C)=O)[C@@H]1C`, the TGI in [1] is more than 100 µM; in assay [2] it was more than 100 µM; in assay [3], 81.8 µM; in [4], more than 100 µM; in assay [5], more than 100 µM; in assay [6] it was more than 100 µM. For the same molecule, the TGI in assay [7], in assay [8] and in assay [10] was more than 100 µM each time.

In the case of `C/C(=C(/c1ccccc1)c1ccc(OCC(O)CNCCN2CCOCC2)cc1)c1ccccc1` (stereo not given), the GI50 is 1.52 µM in assay [1]; 10.1 µM in assay [2]; 3.48 µM in assay [3]; 4.37 µM in [4]; 3.61 µM in assay [5]; 2.13 µM in [6]. Also, the GI50 in assay [8] was 1.91 µM; in assay [9], 4.77 µM; in assay [10], 1.93 µM. Further, the TGI in [1] is 10.1 µM; in [2], 22.2 µM; in assay [3], 11.3 µM; in assay [4], 15.7 µM; in assay [5], 10.2 µM; in [6], 5.41 µM. For the same molecule, the TGI was found to be 4.22 µM in [8], 17.8 µM in assay [9] and 3.82 µM in assay [10].

Regarding `COc1cc(C2=NN(C(C)=O)C(c3cc(OC)c(OC)c(OC)c3)C2)ccc1O` (stereo not given), the GI50 in assay [1] is 0.26 µM; in assay [2] it was 1.09 µM; in assay [3], 0.342 µM; in [4] it was 0.383 µM; in assay [5], 0.276 µM; in [6], 0.381 µM. The GI50 was 0.311 µM in assay [7], 0.491 µM in assay [9] and 0.471 µM in assay [10]. Also, the TGI in [1] is 7.52 µM; in [2] it was more than 100 µM; in [4], more than 33.9 µM; in assay [5], more than 100 µM; in assay [6], more than 100 µM; in assay [7] it was 4.03 µM. In addition, the TGI in assay [9] and in assay [10] was more than 100 µM throughout.
